According to ChEMBL document CHEMBL4219271, “Synthesis and anti-proliferative activity of allogibberic acid derivatives containing 1,2,3-triazole pharmacophore” (Bioorg Med Chem Lett, 2018):

Assays:
Assay type in all cases: functional, cell-based
SW480 = experiment: Cytotoxicity against human SW480 cells assessed as decrease in cell viability after 4 days by MTT assay; details: SW480, 96 h
MCF7 = experiment: Cytotoxicity against human MCF7 cells assessed as decrease in cell viability after 4 days by MTT assay; details: MCF7, 96 h
A549 = experiment: Cytotoxicity against human A549 cells assessed as decrease in cell viability after 4 days by MTT assay; details: A549, 96 h
SMMC-7721 = experiment: Cytotoxicity against human SMMC7721 cells assessed as decrease in cell viability after 4 days by MTT assay; details: SMMC-7721, 96 h
HL-60 = experiment: Cytotoxicity against human HL60 cells assessed as decrease in cell viability after 4 days by MTT assay; details: HL-60, 96 h

| Structure (SMILES) | IC50 (SW480) [µM] | IC50 (MCF7) [µM] | IC50 (A549) [µM] | IC50 (SMMC-7721) [µM] | IC50 (HL-60) [µM] |
| --- | --- | --- | --- | --- | --- |
| C=C1C[C@]23C[C@@]1(O)CC[C@H]2c1ccc(OS(=O)(=O)c2ccc(C)cc2)c(C)c1[C@@H]3Cn1cc(-c2ccc(Br)cc2)nn1 | > 20 | > 20 | > 20 | > 20 | > 20 |
| C=C1C[C@]23C[C@@]1(O)CC[C@H]2c1ccc(OS(=O)(=O)c2ccc(C)cc2)c(C)c1[C@@H]3Cn1cc(-c2ccc(OC)cc2)nn1 | > 20 | > 20 | > 20 | > 20 | > 20 |
| Cc1ccc(S(=O)(=O)Oc2ccc3c(c2C)[C@H](Cn2cc(-c4ccccc4)nn2)[C@@]24CC(=O)[C@@](C)(CC[C@@H]32)C4)cc1 | > 20 | > 20 | > 20 | > 20 | > 20 |
| C=C1C[C@]23C[C@@]1(O)CC[C@@H]2c1cccc(C)c1[C@@H]3Cn1cc(-c2ccc(Br)cc2)nn1 | > 20 | > 20 | > 20 | > 20 | > 20 |
| Cc1c(O)ccc2c1[C@H](Cn1cc(-c3ccc(C(F)(F)F)cc3)nn1)[C@@]13CC(=O)[C@@](C)(CC[C@@H]21)C3 | > 20 | > 20 | > 20 | > 20 | > 20 |
| C=C1C[C@]23C[C@@]1(O)CC[C@H]2c1cc(Br)c(O)c(C)c1[C@@H]3Cn1cc(-c2ccc(F)cc2)nn1 | > 20 | 19.2 | 17.9 | > 20 | 6.6 |
| C=C1C[C@]23C[C@@]1(O)CC[C@H]2c1ccc(OS(=O)(=O)c2ccc(C)cc2)c(C)c1[C@@H]3Cn1cc(-c2ccc(C(F)(F)F)cc2)nn1 | > 20 | > 20 | > 20 | > 20 | > 20 |
| C=C1C[C@]23C[C@@]1(O)CC[C@H]2c1ccc(O)c(C)c1[C@@H]3Cn1cc(-c2ccc(OC)cc2)nn1 | > 20 | > 20 | > 20 | > 20 | > 20 |
| C=C1C[C@]23C[C@@]1(O)CC[C@@H]2c1cccc(C)c1[C@@H]3Cn1cc(-c2ccc(OC)cc2)nn1 | > 20 | > 20 | > 20 | > 20 | > 20 |
| C=C1C[C@]23C[C@@]1(O)CC[C@@H]2c1cccc(C)c1[C@@H]3Cn1cc(-c2ccc(F)cc2)nn1 | > 20 | > 20 | > 20 | > 20 | > 20 |
| C=C1C[C@]23C[C@@]1(O)CC[C@H]2c1ccc(OS(=O)(=O)c2ccc(C)cc2)c(C)c1[C@@H]3Cn1cc(-c2ccc(C)cc2)nn1 | > 20 | > 20 | > 20 | > 20 | > 20 |
| C=C1C[C@]23C[C@@]1(O)CC[C@H]2c1ccc(O)c(C)c1[C@@H]3Cn1cc(-c2ccc(F)cc2)nn1 | > 20 | > 20 | > 20 | > 20 | > 20 |
| Cc1ccc(-c2cn(C[C@H]3c4c(ccc(O)c4C)[C@@H]4CC[C@@]5(C)C[C@]43CC5=O)nn2)cc1 | > 20 | > 20 | > 20 | > 20 | > 20 |
| C=C1C[C@]23C[C@@]1(O)CC[C@@H]2c1cccc(C)c1[C@@H]3Cn1cc(-c2ccccn2)nn1 | > 20 | > 20 | > 20 | > 20 | > 20 |
| C=C1C[C@]23C[C@@]1(O)CC[C@@H]2c1cccc(C)c1[C@@H]3Cn1cc(-c2ccc(C)cc2)nn1 | > 20 | > 20 | > 20 | > 20 | > 20 |
| Cc1ccc(-c2cn(C[C@H]3c4c(ccc(OS(=O)(=O)c5ccc(C)cc5)c4C)[C@@H]4CC[C@@]5(C)C[C@]43CC5=O)nn2)cc1 | > 20 | > 20 | > 20 | > 20 | > 20 |
| Cc1ccc(S(=O)(=O)Oc2ccc3c(c2C)[C@H](Cn2cc(-c4ccc(Cl)cc4)nn2)[C@@]24CC(=O)[C@@](C)(CC[C@@H]32)C4)cc1 | > 20 | > 20 | > 20 | > 20 | > 20 |
| C=C1C[C@]23C[C@@]1(O)CC[C@H]2c1ccc(O)c(C)c1[C@@H]3Cn1cc(-c2ccc(C(F)(F)F)cc2)nn1 | > 20 | 12.4 | 10.4 | > 20 | 8.95 |
| Cc1ccc(S(=O)(=O)Oc2ccc3c(c2C)[C@H](Cn2cc(-c4ccc(C(F)(F)F)cc4)nn2)[C@@]24CC(=O)[C@@](C)(CC[C@@H]32)C4)cc1 | > 20 | > 20 | > 20 | > 20 | > 20 |
| Cc1c(O)ccc2c1[C@H](Cn1cc(-c3ccc(Cl)cc3)nn1)[C@@]13CC(=O)[C@@](C)(CC[C@@H]21)C3 | > 20 | > 20 | > 20 | > 20 | > 20 |
